Laboratory results reported in US20260355330A1, “CELL PENETRATING PEPTIDES AND USES THEREOF” (VECTIOPEP OÜ, priority 2022, published 2026).
Positions of bridges follow the written chain, without caps; N, C: chain ends. Non-standard residues stand in square brackets, D forms with d. Residues, ends and D or L forms follow the SMILES beside them. Chains are numbered I, II in the order given. *: point of attachment. Stearoyl = CCCCCCCCCCCCCCCCCC(=O)*; Orn = NCCC[C@H](N)C(=O)O; Dab = NCC[C@H](N)C(=O)O

Experiments:
spleen of BALB/c mice = experiment: In vivo delivery of mRNA with CPPs - reporter levels in the spleen; conditions: for Efficacy of mRNA delivery into the spleen in vivo: FIG. 5 / Table 5; for Reporter levels in the spleen (RLU): mRNA, tail vein injection, spleens harvested 16 hours after single injection, whole tissue homogenate
Experimental: FIG. 5: Delivery of mRNA with CPPs in vivo—reporter levels in the spleen. Spleens were harvested post mortem 16 hours post-injection. The reporter levels (RLU) were evaluated from the whole tissue homogenate.
The transfection complexes (CPP/mRNA) were formed using 10 μg of mRNA mixed with each peptide at indicated charge ratios (CRs) in MQ water in a final volume of 100 μl. CRs were calculated theoretically and account for both the positive charges of the peptide and negative charges of the nucleic acid. The transfection complexes (CPP/mRNA and CPP/pDNA) were formed using 50 μg of mRNA mixed with each peptide at indicated charge ratios (CRs) in MQ water in a final volume of 168 μl. The complexes were incubated for 30 minutes at room temperature and then mixed with equal volume of 10% glucose (resulting in a final solution of 5% glucose in a total volume of 200 μl for 10 μg dose groups and 336 μl for 50 μg dose groups) and immediately injected intravenously via the tail vein.
The reporter gene (luciferase) expression levels were evaluated from the tissue homogenate post mortem 16-24 h after single injection.
CPPs and mRNA complexes were injected through the tail vein of BALB/c mice, spleens were harvested 16 hours after the single injection and reporter signal was measured from the whole tissue homogenate (FIG. 5 and Table 5).

CHO-K1 cells = experiment: Delivery of reporter mRNA with CPPs in cell culture (luciferase luminescence 24 h post-transfection); assay type: cell-based; conditions: for Average RLU/mg (reporter levels post-transfection of mRNA): firefly luciferase mRNA, 0.1 μg per well, charge ratio 3:1, serum containing media, 24 h, RLU normalised to total protein in lysate; for Efficiency of mRNA transfection/delivery / Delivery of mRNA compared to NF55: in words; for Efficiency of mRNA transfection/delivery: FIG. 1 / Table 2, cell culture; for Delivery of mRNA compared to NF55: comparator NF55
Experimental: FIG. 1: Delivery of reporter mRNA with CPPs in cell culture—evaluation of reporter levels post-transfection (relative light units normalised to total protein in the cell lysate (RLU/mg)). Naked mRNA treated cells were used as controls and Lipofectamine3000 (LF3000) was used to compare the transfection efficacy with a liposome-based transfection reagent.
Adherent CHO-K1 cells were grown in Dulbecco's Modified Eagle's Medium (DMEM), which were supplemented with 0.1 mM non-essential amino acids, 1.0 mM sodium pyruvate, 100 U/ml penicillin, and […]. For complete media, 10% (final) fetal bovine serum (FBS) was added. Cells were maintained in a humidified incubator at 37 °C, 5% CO2. Cell viability and confluence was assessed daily and the cell density was reduced regularly. For cell counting, we used the CytoSMART cell counter accompanied by 0.4% trypan blue staining prior measurement. The multi-well plates with cell cultures used for experiments were incubated in a humidified incubator at 37 °C, 5% CO2.
For in vitro experiments 0.1 μg of nucleic acid (plasmid DNA (pDNA) or mRNA) was used per 96-well plate well. For CPP/NA complex formation, the diluted NA was mixed with CPP in water. Complexes were formed based on the theoretical charge ratio (CR) of positive charges from the peptide in excess to the negative charges from nucleic acid backbone, at charge ratio 3:1 with peptide in excess. Commercial reagent Lipofectamine3000 (LF3000) was used according to the manufacturer's recommendations for the transfection of adherent cells.
For reporter luminescence (expressed from firefly luciferase encoding mRNA or plasmid pDNA) assessment in adherent cell culture, 10,000 cells per 96-well plate well were seeded in 100 μl of media one day prior to transfection. Shortly before transfection, cell media was replaced with 100 μl of serum containing (10% foetal bovine serum) DMEM media. CPPs and mRNA or pDNA were mixed at a charge ratio 3:1 in ultrapure water and incubated at room temperature before addition to cells in serum containing media. Cells were transfected with 0.1 μg of mLuc per well.
24 hours post-transfection, the media was aspirated, cells were washed with 1×PBS, and 30 μl of lysis buffer (0.1% Triton X100 in 1×PBS) was added. Cells were incubated with lysis buffer for 20 min. to lyse the cells. From the lysate, 20 μl was transferred to a black frame white well 96-well plate for luminescence measurement after addition of substrate luciferin (PerkinElmer) in buffer. The luminescence signal was detected with GloMax® 96 microplate luminometer equipped with GloMax® 1.9.2 software (Promega). RLU values were converted to RLU/mg by normalization to total protein in cell lysate, reflecting total number of cells. For protein detection, a Pierce™ BCA Protein Assay Kit was used.
The present inventors have previously reported CPPs developed from the NickFect (NF) and PepFect (PF) families for plasmid (pDNA), siRNA and miRNA delivery (see, e.g. WO 2020/144317, WO 2010/039088 and WO 2012/113846). With the emergence of mRNA-based therapeutics, it was decided to investigate peptides for their ability to deliver mRNA. It was assumed that CPPs that are efficient for siRNA and miRNA delivery, e.g. histidine containing CPPs (Porosk et. al. (2019)), may be good candidates for the delivery of mRNA. Therefore, CPPs from each main family (NF55-, PF14- and NF70-derived CPPs) were tested for mRNA delivery/transfection. Naked mRNA treated and untreated cells were used as control groups. LF3000 was used to compare the transfection efficacy of liposome-based transfection reagents with the CPPs (FIG. 1).

**Q.** How did the “Efficacy of mRNA delivery into the spleen in vivo” value (spleen of BALB/c mice; in words) turn out when `CCCCCCCCCCCCCCCCCC(=O)N[C@@H](C)C(=O)NCC(=O)N[C@@H](Cc1ccc(O)cc1)C(=O)N[C@@H](CC(C)C)C(=O)N[C@@H](CC(C)C)C(=O)NCC(=O)NCCC[C@H](N)C(=O)N[C@@H](CC(C)C)C(=O)N[C@@H](CCCCN)C(=O)N[C@@H](C)C(=O)N[C@@H](CC(C)C)C(=O)N[C@@H](C)C(=O)N[C@@H](C)C(=O)N[C@@H](CC(C)C)C(=O)N[C@@H](C)C(=O)N[C@@H](CCCCN)C(=O)N[C@@H](C)C(=O)N[C@H](C(=O)N[C@@H](CC(C)C)C(N)=O)[C@@H](C)CC` [NF430] (I: H-[Orn]LKALAALAKAIL-NH2 / II: Stearoyl-AGYLLG; amide I:1-II:C) was run?
**A.** highest reporter levels after mRNA delivery into the spleen in vivo

**Q.** What about the “Reporter levels in the spleen (RLU)” value (spleen of BALB/c mice) of the same molecule?
**A.** 405 318 RLU

**Q.** What about the “Average RLU/mg (reporter levels post-transfection of mRNA)” value (shortened to “Average RLU/mg”) (CHO-K1 cells) of the same molecule?
**A.** 766 000 000 RLU/mg

**Q.** Which results are given for `CCCCCCCCCCCCCCCCCC(=O)N[C@@H](C)C(=O)NCC(=O)N[C@@H](Cc1ccc(O)cc1)C(=O)N[C@@H](CC(C)C)C(=O)N[C@@H](CC(C)C)C(=O)NCC(=O)NCC[C@H](N)C(=O)N[C@@H](CC(C)C)C(=O)N[C@@H](CCCCN)C(=O)N[C@@H](C)C(=O)N[C@@H](CC(C)C)C(=O)N[C@@H](C)C(=O)N[C@@H](C)C(=O)N[C@@H](CC(C)C)C(=O)N[C@@H](C)C(=O)N[C@@H](C)C(=O)N[C@@H](CCCCN)C(=O)N[C@H](C(=O)N[C@@H](CC(C)C)C(N)=O)[C@@H](C)CC` [NF436] (I: H-[Dab]LKALAALAAKIL-NH2 / II: Stearoyl-AGYLLG; amide I:1-II:C)?
**A.** Efficacy of mRNA delivery into the spleen in vivo (spleen of BALB/c mice; in words): highest reporter levels after mRNA delivery into the spleen in vivo; Delivery of mRNA in vivo compared to NF54 and/or NF55 (spleen of BALB/c mice; in words, comparator NF54 and/or NF55): significantly improved delivery of mRNA in vivo over both NF54 and NF55; Reporter levels in the spleen (RLU) (spleen of BALB/c mice): 825 783 RLU; mRNA in vivo spleen delivery efficiency relative to NF70 (spleen of BALB/c mice; vs NF70, 16 h post-injection): 100 times; mRNA in vivo spleen delivery efficiency relative to PF1452 (spleen of BALB/c mice; vs PF1452, 16 h post-injection): 43 times; Average RLU/mg (reporter levels post-transfection of mRNA) (CHO-K1 cells): 380 000 000 RLU/mg

**Q.** With `CCCCCCCCCCCCCCCCCC(=O)N[C@@H](C)C(=O)NCC(=O)N[C@@H](Cc1ccc(O)cc1)C(=O)N[C@@H](CC(C)C)C(=O)N[C@@H](CC(C)C)C(=O)NCC(=O)NC[C@H](N)C(=O)N[C@H](C(=O)N[C@@H](CC(N)=O)C(=O)N[C@@H](CC(C)C)C(=O)N[C@@H](CCCCN)C(=O)N[C@@H](C)C(=O)N[C@@H](CC(C)C)C(=O)N[C@@H](C)C(=O)N[C@@H](C)C(=O)N[C@@H](CC(C)C)C(=O)N[C@@H](C)C(=O)N[C@@H](CCCCN)C(=O)N[C@@H](C)C(=O)N[C@H](C(=O)N[C@@H](CC(C)C)C(N)=O)[C@@H](C)CC)[C@@H](C)CC` [NF550] as the molecule, how does the “Reporter levels in the spleen (RLU)” value (spleen of BALB/c mice) read?
**A.** 33 032 RLU

**Q.** And the “Average RLU/mg” value (CHO-K1 cells)?
**A.** 441 000 000 RLU/mg

**Q.** With `CCCCCCCCCCCCCCCCCC(=O)N[C@@H](C)C(=O)NCC(=O)N[C@@H](Cc1ccc(O)cc1)C(=O)N[C@@H](CC(C)C)C(=O)N[C@@H](CC(C)C)C(=O)NCC(=O)NCC[C@H](N)C(=O)N[C@H](C(=O)N[C@@H](CC(N)=O)C(=O)N[C@@H](CC(C)C)C(=O)N[C@@H](CCCCN)C(=O)N[C@@H](C)C(=O)N[C@@H](CC(C)C)C(=O)N[C@@H](C)C(=O)N[C@@H](C)C(=O)N[C@@H](CC(C)C)C(=O)N[C@@H](C)C(=O)N[C@@H](CCCCN)C(=O)N[C@@H](C)C(=O)N[C@H](C(=O)N[C@@H](CC(C)C)C(N)=O)[C@@H](C)CC)[C@@H](C)CC` [NF553] as the molecule, how does the “Reporter levels in the spleen (RLU)” value (spleen of BALB/c mice) read?
**A.** 57 989 RLU

**Q.** What about the “Average RLU/mg” value (CHO-K1 cells) of the same molecule?
**A.** 1 750 000 000 RLU/mg

**Q.** What about the “Efficiency of mRNA transfection/delivery” value (CHO-K1 cells) of the same molecule?
**A.** the most efficient

**Q.** What about the “Delivery of mRNA compared to NF55” value (CHO-K1 cells) of the same molecule?
**A.** improved delivery of mRNA over NF55

**Q.** How did the “Reporter levels in the spleen (RLU)” value (spleen of BALB/c mice) turn out when `CCCCCCCCCCCCCCCCCC(=O)N[C@@H](C)C(=O)NCC(=O)N[C@@H](Cc1ccc(O)cc1)C(=O)N[C@@H](CC(C)C)C(=O)N[C@@H](CC(C)C)C(=O)NCC(=O)NCCCC[C@H](N)C(=O)N[C@H](C(=O)N[C@@H](CC(N)=O)C(=O)N[C@@H](CC(C)C)C(=O)N[C@@H](CCCCN)C(=O)N[C@@H](C)C(=O)N[C@@H](CC(C)C)C(=O)N[C@@H](C)C(=O)N[C@@H](C)C(=O)N[C@@H](CC(C)C)C(=O)N[C@@H](C)C(=O)N[C@@H](CCCCN)C(=O)N[C@@H](C)C(=O)N[C@H](C(=O)N[C@@H](CC(C)C)C(N)=O)[C@@H](C)CC)[C@@H](C)CC` [NF554] (I: H-KINLKALAALAKAIL-NH2 / II: Stearoyl-AGYLLG; amide I:1-II:C) was run?
**A.** 83 650 RLU

**Q.** What about the “Average RLU/mg” value (CHO-K1 cells) of the same molecule?
**A.** 1 690 000 000 RLU/mg

**Q.** And the “Efficiency of mRNA transfection/delivery” value (CHO-K1 cells)?
**A.** the most efficient

**Q.** And the “Delivery of mRNA compared to NF55” value (CHO-K1 cells)?
**A.** improved delivery of mRNA over NF55

**Q.** How did the “Reporter levels in the spleen (RLU)” value (spleen of BALB/c mice) turn out when `CCCCCCCCCCCCCCCCCC(=O)N[C@@H](C)C(=O)NCC(=O)N[C@@H](Cc1ccc(O)cc1)C(=O)N[C@@H](CC(C)C)C(=O)N[C@@H](CC(C)C)C(=O)NCC(=O)N[C@@H](CCN)C(=O)N[C@H](C(=O)N[C@@H](CC(N)=O)C(=O)N[C@@H](CC(C)C)C(=O)N[C@@H](CCCCN)C(=O)N[C@@H](C)C(=O)N[C@@H](CC(C)C)C(=O)N[C@@H](C)C(=O)N[C@@H](C)C(=O)N[C@@H](CC(C)C)C(=O)N[C@@H](C)C(=O)N[C@@H](CCCCN)C(=O)N[C@@H](C)C(=O)N[C@H](C(=O)N[C@@H](CC(C)C)C(N)=O)[C@@H](C)CC)[C@@H](C)CC` [NF559] was run?
**A.** 56 280 RLU

**Q.** What about the “Average RLU/mg” value (CHO-K1 cells) of the same molecule?
**A.** 563 000 000 RLU/mg
